Measurements: patent US20070066608A1, “Novel indole derivatives with an improved antipsychotic activity” (priority 2003, published 2007)

What was measured:
Human 5HT1A receptor = biological target: T1, Human 5HT1A receptor (Homo sapiens, UniProt P08908); experiment: Binding experiment for 5-HT1A receptor, [3H]8OHDPAT; details: membranes of 5HT1A receptor-transfected L929 cells, read-out: pIC50 5HT1A (converted)
T1 construct: expressed in transfected cells; host or cells: L929 cells (stably transfected)
T1 sequence (P08908 1-422): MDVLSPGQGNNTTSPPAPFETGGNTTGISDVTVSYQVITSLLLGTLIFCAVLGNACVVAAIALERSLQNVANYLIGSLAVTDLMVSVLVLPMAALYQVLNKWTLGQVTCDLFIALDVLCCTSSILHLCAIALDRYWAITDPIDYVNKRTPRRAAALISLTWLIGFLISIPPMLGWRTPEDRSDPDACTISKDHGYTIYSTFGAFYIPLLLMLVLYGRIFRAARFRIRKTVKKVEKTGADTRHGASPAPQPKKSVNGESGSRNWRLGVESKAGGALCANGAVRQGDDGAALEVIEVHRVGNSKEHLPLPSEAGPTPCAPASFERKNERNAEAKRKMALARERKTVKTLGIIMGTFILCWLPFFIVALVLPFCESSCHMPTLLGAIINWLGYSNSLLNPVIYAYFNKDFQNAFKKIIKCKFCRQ
Procedure: (§1) The interaction of the compounds of Formula (I) with dopamine-receptors, h5HT-transporter and h5HT1A receptor was assessed in in vitro radioligand binding experiments. In general, a low concentration of a radioligand with a high binding affinity for a particular receptor or transporter is incubated with a sample of a tissue preparation enriched in a particular receptor or transporter or with a preparation of cells expressing cloned human receptors in a buffered medium. During the incubation, the radioligand binds to the receptor or transporter. When equilibrium of binding is reached, the receptor bound radioactivity is separated from the non-bound radioactivity, and the receptor- or transporter-bound activity is counted The interaction of the test compounds with the receptor is assessed in competition binding experiments. Various concentrations of the test compound are added to the incubation mixture containing the receptor- or transporter preparation and the radioligand. The test compound in proportion to its binding affinity and its concentration inhibits binding of the radioligand.
Human 5HT1A receptor-transfected L929 cells were collected by scraping into ice-cold Tris-HCl buffer (50 mM, pH 7.4). The suspension was centrifuged (23 500×g, 10 min, 4° C.) and pellets stored at −70° C. until required. They were then thawed and briefly homogenised using an Ultra-Turrax T25 homogeniser prior to dilution to an appropriate protein concentration optimised for specific and non-specific binding. [^3H]8OHDPAT (NEN, specific activity 127 Ci/mmol) was diluted in Tris-HCl assay buffer containing CaCl2 (50 mM and 4 mM, respectively; pH 7.7) at a concentration of 5 nmol/L. Prepared radioligand (50 μl) was then incubated (30 min, 37° C.) with membrane preparations from L929 cells stably-transfected with the h5HT1A gene construct (400 μl) and with 50 μl of either the 10% DMSO control, spiroxatrine (10^−6 mol/L final concentration), or compound of interest. Membrane-bound activity was detected by filtration through a Packard Filtermate harvester onto Unifaltemplates, washing with ice-cold Tris-HCI buffer (3×4 ml), followed by drying. Scintillation fluid was added and membranes were counted in a Topcount scintillation counter. % Specific bound and competition binding curves were calculated using S-Plus software (Insightful).

[1] = biological target: T2, Human Dopamine D2L receptor (Homo sapiens, UniProt P14416); experiment: Radioligand binding experiment for dopamine D2 receptor (hD2), [3H]Spiperone; details: membranes of D2L receptor-transfected CHO cells, read-out: pIC50 D2 (converted)
T2 construct: expressed in transfected cells; host or cells: CHO cells
Procedure: as §1
Human Dopamine D2L receptor-transfected CHO cells were collected by scraping into ice-cold Tris-HCl buffer ([…], pH 7.4). The suspension was centrifuged (23 500×g, 10 min, 4° C.) and pellets stored at −70° C. until require. They were then thawed and briefly homogenised using an Ultra-Turrax T25 homogeniser prior to dilution to an appropriate protein concentration optimised for specific and non-specific binding. [^3H]Spiperone (NEN, specific activity˜70 Ci/mmol) was diluted in Tris-HCl assay buffer containing NaCl, CaCl2, MgCl2, KCI (50, 120, 2, 1, and 5 mM respectively, adjusted to pH 7.7 with HCl) at a concentration of 2 nmol/L. Prepared radioligand (50 μl) was then incubated (30 min, 37° C.) with membrane preparations pre-diluted to an appropriate protein concentration (400 μl), and with 50 μl of either the 10% DMSO control, Butaclamol (10^−6 mol/L final concentration), or compound of interest. Membrane-bound activity was detected by filtration through a Packard Filtermate harvester onto Unifilterplates, washing with ice-old Tris-HCl buffer (50 mM; pH8.0; 3×4 ml). Filters were allowed to dry before adding scintillation fluid and counting in a Topcount scintillation counter. % Specific bound and competition binding curves were calculated using S-Plus software (Insightful).

[2] = biological target: T3, Human Dopamine D3 receptor (Homo sapiens, UniProt P35462); experiment: Radioligand binding experiment for dopamine D3 receptor (hD3), [125I]Iodosulpride; details: membranes of D3 receptor-transfected CHO cells, read-out: pIC50 D3 (converted)
T3 construct: expressed in transfected cells; host or cells: CHO cells
Procedure: as §1
Human Dopamine D3 receptor-transfected CHO cells were collected by scraping into ice-cold Tris-HCl buffer (50 mM, pH 7.4). The suspension was centrifuged (23 500×g, 10 min, 4° C.) and pellets stored at −70° C. until required. They were then thawed and briefly homogenised using an Ultra-Turrax T25 homogeniser prior to dilution to an appropriate protein concentration optimised for specific and non-specific binding. [^125]Iodosulpride (Amersham, specific activity 2000 Ci/mmol) was diluted in Tris-HCl assay buffer containing NaCl, CaCl2, MgCl2, KCl and BSA (50, 120, 2, 1, 5 mM, 0.1% respectively, adjusted to pH 7.7 with HCl) at a concentration of 2 nmol/L. Prepared radioligand (20 μl) was incubated (60 min, RT) and with 20 μl of either the 10% DMSO control, Risperidone (10^−6 mol/L final concentration), or compound of interest, then with membrane preparations (80 μl). Overnight incubation followed after addition of WGA-coated PVT SPA beads (250 μl; Amersham) and membrane-bound counts measured in a Wallac Microbeta. % Specific bound and competition binding curves were calculated using S-Plus software (Insightful).

human 5HT transporter = biological target: T4, human 5HT transporter (Homo sapiens, UniProt P31645); experiment: Binding experiment for 5-HT transporter, [3H]Paroxetine; details: 5HT transporter-transfected HEK cells, [3H]Paroxetine binding; read-out: pIC50 5HT reuptake inhibition (converted)
T4 construct: host or cells: HEK cells
Procedure: as §1
Frozen human 5HT transporter-transfected HEK cells (Perkin Elmer, Brussels) were thawed and briefly homogenised using an Ultra-Turrax T25 homogeniser prior to dilution to an appropriate protein concentration optimised for specific and non-specific binding. [^3H]Paroxetine (NEN, specific activity 20 Ci/mmol) was diluted in Tris-HCl assay buffer containing NaCl and KCl (50 mM 120 mM and 5 mM, respectively; pH 7.4) at a concentration of 5 nmol/L. Prepared radioligand (25 μl) was then incubated (60 min, 25° C.) with membrane preparations (200 μl) and with 25 μl of either 10% DMSO control, Imipramine (10^−6 mol/L final concentration), or compound of interest Membrane-bound activity was detected by filtration through a Packard Filtermate harvester onto Unifilterplates pre-soaked in 0.1% PEI, washing with ice-cold assay buffer (3×4 ml). Filters were dried prior to addition of scintillation fluid and then counting in a Topcount scintillation counter. % Specific bound and competition binding curves were calculated using S-Plus software (Insightful).

T4 sequence (P31645 whole entry): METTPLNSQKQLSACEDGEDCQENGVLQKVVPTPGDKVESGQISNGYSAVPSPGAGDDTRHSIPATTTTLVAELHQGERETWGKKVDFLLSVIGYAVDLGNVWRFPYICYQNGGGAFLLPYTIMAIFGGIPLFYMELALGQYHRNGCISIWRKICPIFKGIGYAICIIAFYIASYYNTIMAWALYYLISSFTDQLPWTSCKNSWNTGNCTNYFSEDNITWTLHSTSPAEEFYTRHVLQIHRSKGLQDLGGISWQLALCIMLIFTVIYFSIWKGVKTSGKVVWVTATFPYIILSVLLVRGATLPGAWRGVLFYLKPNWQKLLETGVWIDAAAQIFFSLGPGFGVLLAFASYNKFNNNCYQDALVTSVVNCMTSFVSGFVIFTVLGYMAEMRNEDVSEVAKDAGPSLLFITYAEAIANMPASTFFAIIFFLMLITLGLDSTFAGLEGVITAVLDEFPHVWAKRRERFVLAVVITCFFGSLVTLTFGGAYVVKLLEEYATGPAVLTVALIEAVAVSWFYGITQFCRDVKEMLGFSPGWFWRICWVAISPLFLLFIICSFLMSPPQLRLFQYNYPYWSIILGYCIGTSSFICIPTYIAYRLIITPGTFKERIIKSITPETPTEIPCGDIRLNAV
T2 sequence (P14416 whole entry): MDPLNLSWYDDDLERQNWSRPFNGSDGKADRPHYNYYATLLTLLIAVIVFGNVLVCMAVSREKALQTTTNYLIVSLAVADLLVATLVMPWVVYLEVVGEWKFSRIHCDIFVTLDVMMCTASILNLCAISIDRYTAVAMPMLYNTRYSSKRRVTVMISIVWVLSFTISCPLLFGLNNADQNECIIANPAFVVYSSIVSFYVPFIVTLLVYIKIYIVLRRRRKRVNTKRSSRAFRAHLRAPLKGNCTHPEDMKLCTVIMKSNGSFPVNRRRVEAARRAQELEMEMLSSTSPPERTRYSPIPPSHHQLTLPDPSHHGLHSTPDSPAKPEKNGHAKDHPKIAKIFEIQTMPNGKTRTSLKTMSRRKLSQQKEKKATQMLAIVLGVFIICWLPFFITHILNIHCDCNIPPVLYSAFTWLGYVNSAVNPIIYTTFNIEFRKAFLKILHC
T3 sequence (P35462 whole entry): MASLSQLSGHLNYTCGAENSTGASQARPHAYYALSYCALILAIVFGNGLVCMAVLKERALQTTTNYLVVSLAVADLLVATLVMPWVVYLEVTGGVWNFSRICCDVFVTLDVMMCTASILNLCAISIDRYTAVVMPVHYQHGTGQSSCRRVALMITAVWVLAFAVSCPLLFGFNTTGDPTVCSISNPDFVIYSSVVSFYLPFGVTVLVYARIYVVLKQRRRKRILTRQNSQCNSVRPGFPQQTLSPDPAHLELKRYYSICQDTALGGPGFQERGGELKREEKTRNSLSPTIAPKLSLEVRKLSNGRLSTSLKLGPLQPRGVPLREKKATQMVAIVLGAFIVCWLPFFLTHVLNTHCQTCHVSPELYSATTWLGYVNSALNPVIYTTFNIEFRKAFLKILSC

Compound | IC50 (Human 5HT1A receptor) [nM] | IC50 [1] [nM] | IC50 [2] [nM] | IC50 (human 5HT transporter) [nM]
Fc1ccc2[nH]cc(C3=CCN(CC4COc5cccnc5O4)CC3)c2c1 (stereo not drawn) [I, reference compound] | 126 | 251 | 501 | 200
Fc1ccc2[nH]cc(CCCNCC3COc4cccnc4O3)c2c1 (stereo not drawn) [Compound 11] | 1.26 | 158 | 398 | 316
Fc1ccc2[nH]cc(CCCNCC3Oc4cccnc4O3)c2c1 (stereo not drawn) [Compound 9] | 31.6 | > 1000 | 251 | 501
Brc1ccc2[nH]cc(C3=CCN(CC4COc5ccncc5O4)CC3)c2c1 (stereo not drawn) [Compound 13] | – | 158 | – | 100
CN1CC(CN2CCC(c3c[nH]c4ccc(F)cc34)CC2)Oc2ncccc21 (stereo not drawn) [Compound 2] | 15.8 | 398 | 100 | 316
N#Cc1ccc2[nH]cc(C3CCN(CC4COc5ccncc5O4)CC3)c2c1 (single isomer, unassigned) [Compound 21] | 31.6 | 79.4 | – | 20
CN1CC(CN2CC=C(c3c[nH]c4ccc(F)cc34)CC2)Oc2ncccc21 (stereo not drawn) [Compound 1] | 12.6 | 200 | 79.4 | 15.8
O=[N+]([O-])c1ccc2[nH]cc(C3=CCN(CC4COc5ccncc5O4)CC3)c2c1 (racemic) [Compound 14] | 200 | 100 | – | 100
Fc1ccc2[nH]cc(CCCNCC3COc4ccncc4O3)c2c1 (stereo not drawn) [Compound 6] | 6.31 | 200 | 31.6 | 316
N#Cc1ccc2[nH]cc(C3CCN(CC4COc5ccncc5O4)CC3)c2c1 (single isomer, unassigned) [Compound 22] | 10 | 794 | – | 501
O=[N+]([O-])c1ccc2[nH]cc(C3=CCN(CC4COc5ccncc5O4)CC3)c2c1 (single isomer, unassigned) [Compound 15] | – | 200 | – | 10
CN1CC(CNCCCc2c[nH]c3ccc(F)cc23)Oc2ncccc21 (stereo not drawn) [Compound 3] | 3.16 | > 1000 | 398 | 200
Fc1ccc2[nH]cc(CC3CCN(CC4COc5ccncc5O4)CC3)c2c1 (stereo not drawn) [Compound 25] | – | 794 | – | 63.1
O=[N+]([O-])c1ccc2[nH]cc(C3=CCN(CC4COc5ccncc5O4)CC3)c2c1 (single isomer, unassigned) [Compound 16] | – | 316 | – | 251
Fc1ccc2c(C3CCN(CC4COc5ccncc5O4)CC3)c[nH]c2c1 (stereo not drawn) [Compound 23] | – | 25.1 | – | 251
N#Cc1ccc2[nH]cc(C3CCN(CC4COc5ccncc5O4)CC3)c2c1 (racemic) [Compound 20] | – | 63.1 | – | 39.8
Fc1cccc2c(C3=CCN(CC4COc5ccncc5O4)CC3)c[nH]c12 (stereo not drawn) [Compound 17] | – | 126 | – | 50.1
Fc1ccc2[nH]cc(C3CCN(CC4COc5ccncc5O4)CC3)c2c1 (stereo not drawn) [Compound 5] | 39.8 | 79.4 | 6.31 | 126
Fc1cccc2c(C3CCN(CC4COc5ccncc5O4)CC3)c[nH]c12 (stereo not drawn) [Compound 24] | – | 25.1 | – | 316
Oc1ccc2[nH]cc(C3CCN(CC4COc5ccncc5O4)CC3)c2c1 (stereo not drawn) [Compound 19] | – | 63.1 | – | 316
Fc1cccc2[nH]cc(C3=CCN(CC4COc5ccncc5O4)CC3)c12 (stereo not drawn) [Compound 12] | – | – | 158 | 100
Clc1ccc2[nH]cc(C3CCN(CC4COc5ccncc5O4)CC3)c2c1 (stereo not drawn) [Compound 18] | – | 31.6 | – | 200
